Test system: Rabbit Heart
Assay: Imaging of rabbit heart (scintillation camera, intravenous injection)
Format: in vivo
Settings: 2 mCi i.v., 2.5 Kg male New Zealand Albino rabbit, approximately 10 minutes after injection
Description: 2 mCi of Thallium-201 (as thallous chloride in physiological saline containing 0.9% benzyl alcohol) is injected intravenously into a 2.5 Kg male New Zealand Albino rabbit. The rabbit is positioned under a Searle Pho-Gamma scintillation camera in such a way that the heart and lung area are covered by the field of view.
Greater than 1 mCi of the ^99m Tc-labelled product of Example 3 is injected into a rabbit and imaged as in Example 16.

## Thallium-201
  image of the heart (reference Tl-201): sufficient counts are accumulated to produce an image of the heart analogous to that seen in clinical studies of humans
